From US20240374587A1, “MEDICINE FOR PREVENTION AND TREATMENT OF DISEASES LINKED TO ANTI-OBESITY ACTIVITY” (Shionogi & Co., Ltd., priority 2021, published 2024)
pIC50: −log10 of the molar value.

Key:
human MGAT2 = human MGAT2 (Homo sapiens (Human), UniProt Q3SYC2); assay: Measurement of human MGAT2 inhibitory activity; type: biochemical; conditions: concentration exhibiting 50% enzyme inhibition
Method: Solutions of the compounds of the present invention in DMSO were each aliquoted into 0.2·μL portions in a 384-well polystyrene microplate produced by Corning Incorporated, and 5 μL of an enzyme solution prepared with an assay buffer (100 mmol/L phosphate buffer (pH 7.4) containing 2 mmol/L DTT) and 5 μL of a substrate solution (100 mmol/L phosphate buffer (pH 7.4), 30 μmol/L 2-Oleoylglycerol, 10 μmol/L Oleoyl-CoA) were added thereto, and the resultant was stirred and centrifuged, and incubated in a moist chamber at room temperature for 1 hour. After enzymatic reaction, 50 μL of a quenching solution (containing 0.2 μmol/L Diolein-d5, 0.4% formic acid, and 50% isopropanol) containing Internal Standard (IS) was added to terminate the reaction, and the resultant was sealed in a plate produced by Shimadzu GLC Ltd., and then stirred and centrifuged, and measurement was performed by using an electrospray ionization method with a RapidFire360 and Agilent 6550 Q-TOF mass spectrometer. Diolein as a reaction product (P) of 2-Oleoylglycerol as the substrate and an ammonium adduct ion of the IS were detected, and the peak intensity ratio, P/IS, was calculated from the peak heights to evaluate the inhibitory activity. Inhibitory activities with/without addition of enzyme were defined as Control (+)/Control (−), respectively, and the respective % inhibitions were defined as 0% inhibition and 100% inhibition. The inhibitory activity was calculated from the formula below with TIBCO Spotfire (produced by TIBCO Software Inc.) with the peak intensity ratio, P/IS, at the time of addition of the compound of the present invention being as Sample: […]

C57BL/6j mice (DIO mice) = assay: Anti-obesity effect test in DIO mice (body weight, food consumption); type: in vivo; parameters: concentration or dose not given beside the values; conditions: for Rate of decrease in body weight relative to control group: at final administration (Day 0 to Day 35, once a day)
Method: The anti-obesity effect of the compound and/or agent according to the present invention was examined by using C57BL/6j mice (DIO mice) provided with a high-fat diet (TestDiet; 58Y1).
Five-week-old male C57BL/6j mice (CLEA Japan. Inc.) were purchased, and grown with feeding of a high-fat diet under 12-hour light-dark cycles for 4 weeks to produce DIO mice. A medium (0.5% HPMC and physiological saline) was administered once a day from 3 weeks before administration of the compound. Randomization was performed for grouping (n=9 to 10) on the basis of body weight and change in food consumption during the period of administration for conditioning. From Day 0 to Day 35, gavage of vehicle (0.5% HPMC and physiological saline) (hereinafter, Control group), gavage of Compound (A) according to the present invention (hereinafter, (A)-administration group), subcutaneous administration of GLP-1 formulation (liraglutide or semaglutide) as Compound (B) according to the present invention (hereinafter, (B)-administration group), or both (hereinafter, the combined administration group) were performed once a day. The GLP-1 formulation was formulated in an increasing dose, and liraglutide and semaglutide were administered at 4 to 20 μg/kg and:3 to 15 μg/kg, respectively, once a day. During the administration period, daily body weight measurement and food consumption measurement once a week were performed.

human MGAT2, sequence (Q3SYC2 whole entry): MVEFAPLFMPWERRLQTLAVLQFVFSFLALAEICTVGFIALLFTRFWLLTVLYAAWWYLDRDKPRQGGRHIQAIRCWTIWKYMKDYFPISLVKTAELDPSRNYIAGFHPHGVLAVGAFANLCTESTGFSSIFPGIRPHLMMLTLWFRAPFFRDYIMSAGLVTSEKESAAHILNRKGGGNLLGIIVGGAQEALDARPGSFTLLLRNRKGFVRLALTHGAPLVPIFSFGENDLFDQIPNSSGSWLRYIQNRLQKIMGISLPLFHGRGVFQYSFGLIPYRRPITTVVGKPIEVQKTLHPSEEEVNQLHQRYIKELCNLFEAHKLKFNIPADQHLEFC

pIC50 (human MGAT2): 8.54
Compound: CS(=O)(=O)CC(=O)Nc1c2c(nn1CCCOC(F)(F)F)C[C@@]1(CCOc3cc(OCC(F)(F)F)ccc31)NC2=O [II-121]
Rate of decrease in food consumption relative to control group (C57BL/6j mice (DIO mice); 1st week of administration, liraglutide study): 18.9% | Rate of decrease in food consumption relative to control group (C57BL/6j mice (DIO mice); 1st week of administration, semaglutide study): 15.7% | Rate of decrease in food consumption relative to control group (C57BL/6j mice (DIO mice); 2nd week of administration, liraglutide study): 12.7% | Rate of decrease in food consumption relative to control group (C57BL/6j mice (DIO mice); 2nd week of administration, semaglutide study): 10.5% | Rate of decrease in food consumption relative to control group (C57BL/6j mice (DIO mice); 3rd week of administration, liraglutide study): 9.9% | Rate of decrease in food consumption relative to control group (C57BL/6j mice (DIO mice); 3rd week of administration, semaglutide study): 7.3% | Rate of decrease in food consumption relative to control group (C57BL/6j mice (DIO mice); 4th week of administration, liraglutide study): 8.5% | Rate of decrease in food consumption relative to control group (C57BL/6j mice (DIO mice); 4th week of administration, semaglutide study): 3.9% | Rate of decrease in food consumption relative to control group (C57BL/6j mice (DIO mice); 5th week of administration, liraglutide study): 7.5% | Rate of decrease in food consumption relative to control group (C57BL/6j mice (DIO mice); 5th week of administration, semaglutide study): 1.6% | Rate of decrease in body weight relative to control group (C57BL/6j mice (DIO mice); liraglutide study (FIG. 1)): 10.0% | Rate of decrease in body weight relative to control group (C57BL/6j mice (DIO mice); semaglutide study (FIG. 2)): 5.5%
